Laboratory results taken from ChEMBL document CHEMBL1201862, “PubChem BioAssay data set” (2004).
The source made the active and inactive calls.

Tests used:
[1] = cytotoxicity in HEK-293T cells, dose response, cytotoxicity control for BCR NF-kB inhibitor project, luminescence, B-cell screen hits (AID 489021); type: functional, cell-based;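 also: HEK-293T cells carrying an NF-kB luciferase reporter; cells exposed to compound for about 14 hours before viability readout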
[2] = off-target signal loss in HeLa-CEM21 co-culture – HeLa F-luc CTL cells, cherry-picked, counter-screen for HIV-1 Env fusion inhibitor project, dose response (AID 652040); type: functional, cell-based;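 also: potency for signal decrease marking cytotoxic or nonspecific inhibition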
[3] = A549 cell cytotoxicity, dose response, cytotoxicity control, plate reader, cherry-pick, antagonist series (AID 743412); type: functional, cell-based
[4] = HEK293 cell cytotoxicity, dose response, cytotoxicity control, plate reader, cherry-picked samples (AID 743446); type: functional, cell-based
INS1 = assay: beta cell apoptosis inhibitors, cytokine rescue, dose response, luminescence, retest (AID 449756); type: functional, cell-based; conditions: Rattus norvegicus;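 also: cell death triggered by IL-1 beta plus TNF-alpha plus IFN-gamma mixture; protective hits raise ATP signal compared with cytokine alone wells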
[5] = inhibitors of clade B AD8 Env fusion, dose response, cell-based, cherry-pick (AID 652062); type: functional;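 also: luciferase signal from cell-cell fusion driven by HIV-1 clade B AD8 Env; potency is for inhibitors of fusion seen as a drop in luminescence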
[6] = inhibitors of HIV Env-driven cell fusion, dose response, cherry-pick (AID 652057); type: functional, cell-based
[7] = LGR2 antagonists, dose response, cell-based, HEK293, CRE-luciferase reporter, cherry pick, set 2 (AID 743343); type: functional;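 also: transfected cells were stimulated with diluted bursicon conditioned medium after compound addition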
[8] = CEM21 lymphoblast cell cytotoxicity, dose response, cytotoxicity control for viral fusion inhibitor project, CellTiter-Glo luminescence, cherry-picked (AID 652042); type: functional, cell-based;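 also: potency for signal decrease meaning cytotoxicity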
[9] = HepG2 cell cytotoxicity, dose response, cytotoxicity control, plate reader, cherry-pick, antagonist series (AID 743416); type: functional, cell-based
[10] = MC4R antagonists, dose response, counter-screen for LGR2 antagonist project, cell-based, plate reader, cherry pick (AID 743444); type: functional;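 also: transfected HEK 293 cells stimulated with alpha-MSH peptide; potency of inhibitors of the alpha-MSH evoked signal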
[11] = ZM109 Env clade C HIV-1 fusion inhibitors, dose response, HeLa effector, CEM target cells, luciferase, cherry-pick (AID 652058); type: functional, cell-based
A549 = assay: A549 cell toxicity, dose response, cytotoxicity control, plate reader, cherry-pick samples (AID 687028); type: functional, cell-based; conditions: Homo sapiens
[12] = target: Dual specificity protein phosphatase 3 (Homo sapiens, UniProt P51452); assay: VHR phosphatase inhibition, dose response, selectivity assay for STEP inhibitor project, biochemical (AID 602374); type: functional; conditions: read-out: IC50_Mean
[13] = target: Tyrosine-protein phosphatase non-receptor type 5 (Homo sapiens, UniProt P54829); assay: STEP phosphatase inhibitors, confirmation, biochemical, fluorescence intensity, uHTS hits (AID 602372); type: functional; conditions: read-out: IC50_Mean
[14] = target: Tyrosine-protein phosphatase non-receptor type 11 (Homo sapiens, UniProt Q06124); assay: SHP2 phosphatase inhibition, dose response, selectivity assay for STEP inhibitor project, biochemical (AID 602367); type: functional; conditions: read-out: IC50_Mean
[15] = target: T1, Tyrosine-protein phosphatase non-receptor type 22 (Homo sapiens, UniProt Q9Y2R2); assay: PTPN22 phosphatase inhibition, dose response, selectivity assay for STEP inhibitor project, biochemical (AID 624241); type: functional
T1 sequence (Q9Y2R2 whole entry): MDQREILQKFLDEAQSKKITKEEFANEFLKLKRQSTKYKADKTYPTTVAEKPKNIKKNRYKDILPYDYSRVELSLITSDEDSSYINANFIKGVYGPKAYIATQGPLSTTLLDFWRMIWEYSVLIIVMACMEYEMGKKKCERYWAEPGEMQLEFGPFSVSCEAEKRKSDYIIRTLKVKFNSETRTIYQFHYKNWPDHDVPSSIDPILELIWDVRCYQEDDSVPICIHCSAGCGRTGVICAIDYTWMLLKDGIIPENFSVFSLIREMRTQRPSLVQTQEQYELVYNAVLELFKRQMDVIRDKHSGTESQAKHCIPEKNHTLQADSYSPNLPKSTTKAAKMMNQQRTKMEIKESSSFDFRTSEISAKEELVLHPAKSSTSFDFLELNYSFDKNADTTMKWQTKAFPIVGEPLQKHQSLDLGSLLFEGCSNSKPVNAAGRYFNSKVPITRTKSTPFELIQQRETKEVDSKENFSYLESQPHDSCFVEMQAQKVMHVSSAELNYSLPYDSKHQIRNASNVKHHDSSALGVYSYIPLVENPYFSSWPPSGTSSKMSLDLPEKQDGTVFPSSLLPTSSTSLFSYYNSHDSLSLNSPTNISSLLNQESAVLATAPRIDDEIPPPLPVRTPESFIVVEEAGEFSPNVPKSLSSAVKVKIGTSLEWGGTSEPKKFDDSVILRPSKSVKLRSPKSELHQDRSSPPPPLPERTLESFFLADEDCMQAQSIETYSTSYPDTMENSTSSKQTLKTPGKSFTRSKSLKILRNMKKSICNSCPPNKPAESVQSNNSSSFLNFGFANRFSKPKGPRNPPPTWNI

[16] = target: SWI/SNF-related matrix-associated actin-dependent regulator of chromatin subfamily A member 2 (Homo sapiens, UniProt P51531); assay: Luminescence-based cell-based high throughput dose response assay to identify activators of the function of SWI/SNF related, matrix associated, actin dependent regulator of chromatin, subfamily a, member 2 (SMARCA2, BRM).; type: functional
Paired box protein Pax-8 = Paired box protein Pax-8 (Homo sapiens, UniProt Q06710); assay: inhibitors of PAX8-driven TPO luciferase reporter, dose response, RMG-I cells, cherry-pick (AID 687027); type: functional, cell-based;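 also: luciferase reporter driven by Pax8 target thyroperoxidase promoter measured by SteadyGlo luminescence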
[17] = Counterscreen for activators of the function of SWI/SNF related, matrix associated, actin dependent regulator of chromatin, subfamily a, member 2 (SMARCA2, BRM): Luminescence-based cell-based high throughput dose response assay to identify non-selective compounds using the VP16 reporter assay.; type: functional
[18] = inhibitors of LMP1-driven NF-kB reporter, dose response, cell-based, EBV LMP1, luciferase, dry powder, set 2 (AID 624361); type: functional
[19] = LMP1-driven NF-kB reporter inhibition, dose response, cell-based, luciferase reporter, luminescence, dry powder, set 2 (AID 624376); type: functional
[20] = inhibitors of TNFa-stimulated NF-kB luciferase reporter, dose response, selectivity assay for EBV LMP1 NF-kB inhibitor project, HEK293 LMP1 reporter cells, dry powder, set 2 (AID 624369); type: functional
[21] = target: Potassium channel subfamily K member 9 (Homo sapiens, UniProt Q9NPC2); assay: TASK3 (KCNK9) channel inhibitors, thallium flux, SAR follow-up, selectivity assay for TASK1 inhibitor project, cell-based, FluxOR thallium flux, concentration-response (AID 652211); type: functional;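 also: potency is for inhibitors of the channel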
Vero = assay: Vero cell toxicity, dose response, cytotoxicity control, plate reader, cherry-pick samples (AID 687020); type: functional, cell-based; conditions: Chlorocebus sabaeus
[22] = target: Glucose-6-phosphate 1-dehydrogenase (Homo sapiens, UniProt P11413); assay: human G6PD enzyme inhibitors, dose response, selectivity assay for P. falciparum G6PD inhibitor project, biochemical, fluorescence (AID 504792); type: functional
[23] = HeLa cell cytotoxicity, dose response, cytotoxicity control for MgcRacGAP inhibitor project (AID 624300); type: functional
[24] = HEK293 cell viability, dose response, counter-screen for EBV LMP1 inhibitor project, dry powder, set 2 (AID 624374); type: functional
[25] = target: Fructose-bisphosphate aldolase (Mycobacterium tuberculosis, UniProt P9WQA3); assay: Fluorescence-based biochemical high throughput dose response assay for inhibitors of the fructose-bisphosphate aldolase (FBA) of M. tuberculosis.; type: functional
[26] = HEK293T cytotoxicity, dose response, cytotoxicity control for miR-122 modulator project, cell-based, inhibitor set, cherry-pick, set 2 (AID 720697); type: functional
[27] = miR-122 activators in hepatoma reporter cells, dose response, cell-based, Huh7 psiCHECK-miR122, Renilla luciferase, cherry-picked (AID 651956); type: functional;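 also: huh7 hepatoma cells stably carrying a psiCHECK-2 miR-122 sensor plasmid; renilla luciferase signal reporting endogenous miR-122 activity after 48 h compound exposure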
Aminopeptidase N = target: T2, Aminopeptidase N (Plasmodium falciparum FcB1/Columbia, UniProt O96935); assay: P. falciparum M1AAP inhibitors, biochemical, fluorogenic H-Leu-NHMec substrate, 1536-well (AID 1445); parameters: species or system Plasmodium falciparum 3D7, 3D7
T2 sequence (O96935 whole entry): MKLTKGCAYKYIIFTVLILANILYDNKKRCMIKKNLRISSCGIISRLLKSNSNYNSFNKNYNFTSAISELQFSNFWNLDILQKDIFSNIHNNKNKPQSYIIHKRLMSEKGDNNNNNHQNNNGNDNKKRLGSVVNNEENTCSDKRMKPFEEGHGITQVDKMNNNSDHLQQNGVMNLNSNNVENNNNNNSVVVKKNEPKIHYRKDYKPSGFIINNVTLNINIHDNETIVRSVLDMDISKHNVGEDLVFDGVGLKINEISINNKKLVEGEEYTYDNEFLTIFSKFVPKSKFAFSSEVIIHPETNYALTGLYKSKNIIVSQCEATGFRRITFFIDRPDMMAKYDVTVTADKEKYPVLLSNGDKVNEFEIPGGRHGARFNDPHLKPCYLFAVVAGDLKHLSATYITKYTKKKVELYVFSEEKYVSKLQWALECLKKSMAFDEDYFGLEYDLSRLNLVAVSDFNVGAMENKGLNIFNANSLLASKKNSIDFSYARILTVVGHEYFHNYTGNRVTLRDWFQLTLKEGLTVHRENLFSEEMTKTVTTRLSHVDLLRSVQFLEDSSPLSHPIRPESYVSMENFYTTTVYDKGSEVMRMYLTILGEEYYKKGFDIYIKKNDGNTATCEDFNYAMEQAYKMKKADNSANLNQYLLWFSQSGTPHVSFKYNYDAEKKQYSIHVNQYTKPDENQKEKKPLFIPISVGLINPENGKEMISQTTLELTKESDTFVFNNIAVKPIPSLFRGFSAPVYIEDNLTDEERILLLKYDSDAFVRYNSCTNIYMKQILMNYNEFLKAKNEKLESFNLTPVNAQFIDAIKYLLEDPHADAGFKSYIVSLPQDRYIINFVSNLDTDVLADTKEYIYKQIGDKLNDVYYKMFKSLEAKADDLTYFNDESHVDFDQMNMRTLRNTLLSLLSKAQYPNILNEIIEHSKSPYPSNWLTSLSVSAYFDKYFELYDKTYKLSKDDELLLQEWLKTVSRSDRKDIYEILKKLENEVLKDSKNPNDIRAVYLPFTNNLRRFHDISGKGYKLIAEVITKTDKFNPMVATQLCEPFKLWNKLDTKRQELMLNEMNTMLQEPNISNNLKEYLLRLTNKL

Beta-lactamase [28] = target: T3, Beta-lactamase (Pseudomonas aeruginosa, UniProt Q79MP6); assay: […] counterscreen for selective VIM-2 inhibitors: dose response biochemical high throughput screening assay to identify inhibitors of IMP-1 metallo-beta-lactamase.
Beta-lactamase [29] = target: T3, Beta-lactamase; assay: IMP-1 metallo-beta-lactamase inhibitors, dose response, selectivity assay for VIM-2 inhibitor project, biochemical, epi-absorbance (AID 1920)
Beta-lactamase [30] = target: Beta-lactamase (Salmonella choleraesuis (strain SC-B67), UniProt Q5J463); assay: Epi-absorbance-based counterscreen for selective VIM-2 inhibitors: dose response biochemical high throughput screening assay to identify inhibitors of TEM-1 serine-beta-lactamase.
Sequence of Beta-lactamase (Salmonella choleraesuis (strain SC-B67), UniProt Q5J463) (Q5J463 whole entry): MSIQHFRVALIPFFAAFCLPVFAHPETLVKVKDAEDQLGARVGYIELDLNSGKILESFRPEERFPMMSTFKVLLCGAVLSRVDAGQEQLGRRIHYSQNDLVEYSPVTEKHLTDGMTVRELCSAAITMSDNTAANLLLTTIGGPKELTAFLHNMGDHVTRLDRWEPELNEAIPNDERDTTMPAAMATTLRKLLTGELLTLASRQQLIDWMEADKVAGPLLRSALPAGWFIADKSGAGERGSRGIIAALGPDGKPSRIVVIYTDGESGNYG

T3 sequence (Q79MP6 whole entry): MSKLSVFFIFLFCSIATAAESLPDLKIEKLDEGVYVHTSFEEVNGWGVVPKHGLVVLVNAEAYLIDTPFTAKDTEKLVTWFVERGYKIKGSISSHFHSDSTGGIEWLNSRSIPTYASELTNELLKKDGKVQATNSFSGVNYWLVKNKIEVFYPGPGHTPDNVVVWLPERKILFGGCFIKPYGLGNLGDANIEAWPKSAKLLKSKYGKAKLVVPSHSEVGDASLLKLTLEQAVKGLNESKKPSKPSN
Sequence of Potassium channel subfamily K member 9 (Q9NPC2 whole entry): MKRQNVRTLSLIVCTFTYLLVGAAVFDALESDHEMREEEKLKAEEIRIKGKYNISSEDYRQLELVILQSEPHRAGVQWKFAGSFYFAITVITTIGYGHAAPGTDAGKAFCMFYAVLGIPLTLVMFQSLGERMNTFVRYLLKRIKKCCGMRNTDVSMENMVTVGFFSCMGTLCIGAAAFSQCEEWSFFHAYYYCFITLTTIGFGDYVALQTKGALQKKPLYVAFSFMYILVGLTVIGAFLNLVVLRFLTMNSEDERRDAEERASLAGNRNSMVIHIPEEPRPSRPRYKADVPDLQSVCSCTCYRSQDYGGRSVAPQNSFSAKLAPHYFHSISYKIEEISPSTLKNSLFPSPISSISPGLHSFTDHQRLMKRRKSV
Sequence of Glucose-6-phosphate 1-dehydrogenase (P11413 whole entry): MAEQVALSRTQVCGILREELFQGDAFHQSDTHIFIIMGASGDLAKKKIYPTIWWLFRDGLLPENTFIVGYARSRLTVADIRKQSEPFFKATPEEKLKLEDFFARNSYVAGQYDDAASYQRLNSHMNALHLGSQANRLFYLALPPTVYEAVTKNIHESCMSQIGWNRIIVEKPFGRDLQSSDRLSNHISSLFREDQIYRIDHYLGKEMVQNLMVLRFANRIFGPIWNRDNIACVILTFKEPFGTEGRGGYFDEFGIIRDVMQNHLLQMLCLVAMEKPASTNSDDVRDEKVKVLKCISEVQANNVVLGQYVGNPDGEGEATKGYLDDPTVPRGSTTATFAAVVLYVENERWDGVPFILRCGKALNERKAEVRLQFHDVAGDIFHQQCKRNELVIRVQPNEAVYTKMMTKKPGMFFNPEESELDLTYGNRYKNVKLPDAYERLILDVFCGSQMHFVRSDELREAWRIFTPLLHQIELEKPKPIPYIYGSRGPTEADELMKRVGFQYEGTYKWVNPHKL
Sequence of Fructose-bisphosphate aldolase (P9WQA3 whole entry): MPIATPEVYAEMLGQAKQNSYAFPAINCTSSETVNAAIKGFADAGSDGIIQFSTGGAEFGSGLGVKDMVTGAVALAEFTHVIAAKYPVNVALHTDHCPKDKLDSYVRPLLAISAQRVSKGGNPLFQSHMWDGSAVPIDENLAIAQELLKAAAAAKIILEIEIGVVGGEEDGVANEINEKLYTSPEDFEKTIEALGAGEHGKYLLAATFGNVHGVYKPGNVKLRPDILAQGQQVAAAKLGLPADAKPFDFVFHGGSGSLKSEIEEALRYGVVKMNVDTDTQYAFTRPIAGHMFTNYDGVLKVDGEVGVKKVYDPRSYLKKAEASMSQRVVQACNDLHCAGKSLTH
Sequence of Tyrosine-protein phosphatase non-receptor type 5 (P54829 whole entry): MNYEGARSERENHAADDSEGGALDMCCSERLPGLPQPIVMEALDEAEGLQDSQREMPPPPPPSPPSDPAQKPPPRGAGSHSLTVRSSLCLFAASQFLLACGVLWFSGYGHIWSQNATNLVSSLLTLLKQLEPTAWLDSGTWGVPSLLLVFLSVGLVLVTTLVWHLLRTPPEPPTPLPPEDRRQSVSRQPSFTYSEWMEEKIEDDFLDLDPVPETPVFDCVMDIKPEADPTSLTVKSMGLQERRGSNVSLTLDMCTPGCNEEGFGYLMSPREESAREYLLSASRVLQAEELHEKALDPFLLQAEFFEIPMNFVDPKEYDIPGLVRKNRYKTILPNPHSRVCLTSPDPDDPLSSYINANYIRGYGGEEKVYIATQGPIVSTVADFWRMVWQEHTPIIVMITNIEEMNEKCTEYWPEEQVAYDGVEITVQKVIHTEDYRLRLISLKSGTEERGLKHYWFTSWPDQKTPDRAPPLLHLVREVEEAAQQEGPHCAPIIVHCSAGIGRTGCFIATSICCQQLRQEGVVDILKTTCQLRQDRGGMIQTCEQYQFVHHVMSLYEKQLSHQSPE
Sequence of Paired box protein Pax-8 (Q06710 whole entry): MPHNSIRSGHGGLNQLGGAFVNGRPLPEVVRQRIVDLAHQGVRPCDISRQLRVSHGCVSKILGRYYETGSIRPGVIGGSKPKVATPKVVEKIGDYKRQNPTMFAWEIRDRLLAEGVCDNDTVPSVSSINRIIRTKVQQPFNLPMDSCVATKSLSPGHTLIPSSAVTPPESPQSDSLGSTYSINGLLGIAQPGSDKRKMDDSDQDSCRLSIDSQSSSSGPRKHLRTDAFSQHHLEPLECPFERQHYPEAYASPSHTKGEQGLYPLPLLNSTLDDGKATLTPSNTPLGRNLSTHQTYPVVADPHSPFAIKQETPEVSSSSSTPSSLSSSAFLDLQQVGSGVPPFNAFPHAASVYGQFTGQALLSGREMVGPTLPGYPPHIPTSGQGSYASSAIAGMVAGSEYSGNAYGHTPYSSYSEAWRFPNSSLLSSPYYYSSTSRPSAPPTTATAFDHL
Sequence of Tyrosine-protein phosphatase non-receptor type 11 (Q06124 whole entry): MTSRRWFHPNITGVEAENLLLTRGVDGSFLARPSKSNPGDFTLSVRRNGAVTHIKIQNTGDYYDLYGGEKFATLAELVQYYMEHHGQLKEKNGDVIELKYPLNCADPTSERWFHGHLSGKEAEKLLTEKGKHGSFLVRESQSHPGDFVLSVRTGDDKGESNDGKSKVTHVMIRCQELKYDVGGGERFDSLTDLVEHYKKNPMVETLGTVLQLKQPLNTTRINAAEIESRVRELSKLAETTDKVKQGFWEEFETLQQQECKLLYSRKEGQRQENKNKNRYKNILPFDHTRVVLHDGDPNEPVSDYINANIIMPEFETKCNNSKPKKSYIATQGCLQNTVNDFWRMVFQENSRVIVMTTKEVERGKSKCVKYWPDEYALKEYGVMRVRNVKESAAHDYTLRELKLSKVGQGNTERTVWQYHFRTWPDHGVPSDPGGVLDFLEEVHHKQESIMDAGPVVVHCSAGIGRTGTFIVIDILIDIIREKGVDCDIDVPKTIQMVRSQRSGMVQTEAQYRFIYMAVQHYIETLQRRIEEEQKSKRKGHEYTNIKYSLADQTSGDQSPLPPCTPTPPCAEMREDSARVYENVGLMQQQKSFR
Sequence of Dual specificity protein phosphatase 3 (P51452 whole entry): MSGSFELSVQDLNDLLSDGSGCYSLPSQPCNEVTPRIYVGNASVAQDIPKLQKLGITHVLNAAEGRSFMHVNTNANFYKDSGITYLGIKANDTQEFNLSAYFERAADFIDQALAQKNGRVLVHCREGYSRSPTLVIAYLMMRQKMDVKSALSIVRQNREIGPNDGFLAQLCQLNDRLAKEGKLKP

## CC(C)CN(C(=O)COC(=O)C12CC3CC(CC(C3)C1)C2)c1c(N)n(Cc2ccccc2)c(=O)[nH]c1=O
[1]
  IC50: > 80 µM (inactive)
[2]
  AC50: 17 µM (active)
[3]
  AC50: 8.64 µM (active)
[4]
  AC50: 16.6 µM (active)
INS1
  AC50: 3.62 µM (active)
[5]
  AC50: 18.3 µM (active)
[6]
  AC50: 9.69 µM (active)
[7]
  AC50: 43.8 µM (active)
[8]
  AC50: 13.1 µM (active)
[9]
  AC50: 13.7 µM (active)
[10]
  AC50: 30.2 µM (active)
[11]
  AC50: 11.4 µM (active)

## CC1(C(=O)NCc2cccs2)Cc2c(-c3cccc(C(F)(F)F)c3)ccnc2O1 (stereo not given)
A549
  AC50: 17.6 µM (active)

## SC1=NC2=C(CCCC2=C2SCCS2)C(c2ccccc2)N1 (stereo not given)
[12]
  IC50: 1.23 µM (active)
[13]
  IC50: 22.6 µM (inactive)
[14]
  IC50: 5.27 µM (active)
[15]
  IC50: > 100 µM (inactive)

## CN(C)c1ncnc2c1nnn2C1OC(CO)C(O)C1O (stereo not given)
[16]
  EC50: > 91.2 µM (inactive)
Paired box protein Pax-8
  AC50: < 0.26 µM (active)
[17]
  EC50: > 91.2 µM (inactive)

## CC(C)NC(=O)N1[C@H](CO)[C@H](c2ccc(C#CC3CCCCC3)cc2)[C@@H]1C#N
[18]
  AbsAC35: 53.56 µM
[19]
  AbsAC35: 62.28 µM
[20]
  AbsAC35: 202.7 µM

## Cc1cccc(C(=O)Nc2cccc(NC(=O)c3ccccc3Cl)c2)c1
[21]
  IC50: 19.8 µM (active)

## CCCCC[C@H]1CN(CCc2ccccc2)C(=O)[C@@H]1CC(=O)NCc1ccc(OC)cc1
Vero
  AC50: 33.9 µM (active)

## O=[N+]([O-])c1cnc(Sc2ccncn2)c([N+](=O)[O-])c1
[22]
  IC50: > 80 µM (inactive)
[23]
  CC50: 34.1 µM (active)

## C[C@@H]1CN([C@@H](C)CO)C(=O)c2c(c3ccccc3n2C)-c2ccccc2CO[C@H]1CN(C)C(=O)Nc1ccc(F)cc1
[24]
  AbsAC35: 204.77 µM

## CC(=O)NN1C(=O)c2ccccc2NC1c1ccccn1 (stereo not given)
[25]
  IC50: 3.49 µM (active)

## Cc1cc(NS(=O)(=O)c2ccc(NC(=O)C(CC(C)C)N3C(=O)c4ccccc4C3=O)cc2)nc(C)n1 (stereo not given)
[26]
  AC50: 8.51 µM (active)
[27]
  AC50: 49.8 µM (active)
Aminopeptidase N
  IC50: 38 µM (active)

## O=C(CSc1nnc(NC(=O)C2CC2)s1)NCc1ccccc1Cl
Beta-lactamase [28]
  IC50: > 59.6 µM (inactive)
Beta-lactamase [29]
  IC50: > 59.6 µM (inactive)
Beta-lactamase [30]
  IC50: > 59.6 µM (inactive)
